Earlier results, collected in patent US6849254B1, “HCV combination therapy” (Schering Corporation, priority 1999, dated 2005).

Assays:
[1] = for Potency of 1 mg in IU of Vitamin E: per 1 mg
CD4 levels = details: HIV patients; higher doses; Phase I/II clinical trials (PharmaProjects)
[2] = test system: chronic childhood cholestasis; details: 20-25 IU/kg/day (Sokool et al.)

Compound	Potency of 1 mg in IU of Vitamin E [1]	further results
CC(=O)Oc1c(C)c(C)c2c(c1C)CC[C@@](C)(CCC[C@H](C)CCC[C@H](C)CCCC(C)C)O2 [di-alpha tocopheryl acetate]		Amount equivalent to one IU of Vitamin E ([1]; per one IU of Vitamin E): 1 mg
CC(C)(Sc1cc(C(C)(C)C)c(O)c(C(C)(C)C)c1)Sc1cc(C(C)(C)C)c(O)c(C(C)(C)C)c1 [Panavia, 4,4′-isopropylidenedithiobis-2,6-di-t-butylphenol]		CD4 levels (CD4 levels): stablized or slightly stabilized CD4 levele
d-alpha-tocopheryl polyethylene glycol 1000 succinate [Vitamin E-TPGS]		Safety and efficacy in chronic childhood cholestasis [2]: appears to be safe and effective
Cc1c(C)c2c(c(C)c1O)CC[C@@](C)(CCC[C@H](C)CCC[C@H](C)CCCC(C)C)O2 [d-alpha tocopherol]	1.49 IU	
CC(=O)Oc1c(C)c(C)c2c(c1C)CC[C@@](C)(CCC[C@H](C)CCC[C@H](C)CCCC(C)C)O2 [d-alpha tocopheryl acetate]	1.36 IU	
Cc1c(C)c2c(c(C)c1OC(=O)CCC(=O)O)CC[C@@](C)(CCC[C@H](C)CCC[C@H](C)CCCC(C)C)O2 [d-alpha tocopheryl succinate]	1.21 IU	
